Results: publication PMC10840477 (Acta Pharmaceutica Sinica. B, 2023)

Assays:
P2Y12 = P2Y12 (Homo sapiens, UniProt Q9H244); experiment: P2Y12 β-Arrestin recruitment assay; format: cell-based; conditions: at similar concentrations as TP1; antagonist mode, n = 2
ICR mice [1] = experiment: Forced swimming test; format: in vivo, mouse; conditions: p.o. 20 mg/kg, positive control, final 4 min of 6 min test
ICR mice [2] = experiment: Tail suspension test; format: in vivo, mouse; conditions: p.o. 20 mg/kg, positive control, final 4 min of 6 min test
ICR mice [3] = experiment: In vivo acute pulmonary thrombosis; parameters: species or system mouse; conditions: three days, positive control

Sequence of P2Y12 (Q9H244 whole entry): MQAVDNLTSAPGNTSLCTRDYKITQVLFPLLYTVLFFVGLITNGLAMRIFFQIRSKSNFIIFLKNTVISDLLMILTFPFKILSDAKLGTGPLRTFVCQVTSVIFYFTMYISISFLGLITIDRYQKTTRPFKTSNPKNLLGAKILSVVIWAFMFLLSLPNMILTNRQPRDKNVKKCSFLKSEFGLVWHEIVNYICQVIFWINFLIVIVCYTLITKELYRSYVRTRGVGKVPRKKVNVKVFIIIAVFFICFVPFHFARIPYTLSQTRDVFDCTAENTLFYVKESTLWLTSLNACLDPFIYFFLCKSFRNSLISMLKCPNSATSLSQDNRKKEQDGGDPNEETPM

## CC(C)=CCC[C@](C)(O[C@@H]1O[C@H](CO)[C@@H](O)[C@H](O)[C@H]1O)[C@H]1CC[C@]2(C)[C@@H]1[C@H](O)C[C@@H]1[C@@]3(C)CC[C@H](O)C(C)(C)[C@@H]3[C@@H](O[C@@H]3O[C@H](CO)[C@@H](O)[C@H](O)[C@H]3O)C[C@]12C [ginsenoside Rg1]
P2Y12
  Inhibitory effects against P2Y12 activation: did not display inhibitory effects

## CC(C)=CCC[C@](C)(O[C@@H]1O[C@H](CO[C@@H]2O[C@H](CO)[C@@H](O)[C@H](O)[C@H]2O)[C@@H](O)[C@H](O)[C@H]1O)[C@H]1CC[C@]2(C)[C@@H]1[C@H](O)C[C@@H]1[C@@]3(C)CC[C@H](O[C@@H]4O[C@H](CO)[C@@H](O)[C@H](O)[C@H]4O[C@@H]4O[C@H](CO)[C@@H](O)[C@H](O)[C@H]4O)C(C)(C)[C@@H]3CC[C@]12C [ginsenoside Rb1]
P2Y12
  Inhibitory effects against P2Y12 activation: did not display inhibitory effects

## CNCCC(Oc1ccc(C(F)(F)F)cc1)c1ccccc1 (stereo not drawn) [fluoxetine]
ICR mice [1]
  Decrease of immobility time, forced swimming test: 42.52 ± 9.96 s
ICR mice [2]
  Decrease of immobility time, tail suspension test: 30.01 ± 7.22 s

## COC(=O)[C@H](c1ccccc1Cl)N1CCc2sccc2C1 [clopidogrel]
ICR mice [3]; oral clopidogrel 50 mg/kg
  Thrombus formation in the lung, effect relative to ginsentide TP1: comparable

## CC(=O)Oc1ccccc1C(=O)O [aspirin]
ICR mice [3]; oral aspirin 100 mg/kg
  Thrombus formation in the lung, effect relative to ginsentide TP1: comparable
